Measured values from patent US9150523B2, “Piperazine derivatives, methods for preparing same, and uses thereof in the treatment of insulin resistance” (METABOLYS, priority 2011, dated 2015).

System: db/db mouse
Test: Antidiabetic activity in db/db mouse (drop in glycaemia after oral administration)
Assay type: in vivo
Conditions: 8 weeks old, 200 mg/kg per os
Experimental: The antidiabetic activity of the compound of formula (I) orally on a type 2 diabetes animal model, the db/db mouse, was tested. Diabetic mice are used at the age of 8 weeks; they then have very high hyperglycaemia. The animals are stabilised at a minimum for one week after reception and up to the day of experimentation in an animal house at a temperature regulated at 21°-22° C. and subjected to a fixed cycle of light (from 7 a.m. to 7 p.m.) and darkness (from 7 p.m. to 7 a.m.). Their food consisted of a maintenance regime; water and food were supplied “ad libitum”. The mice are treated orally with the product to be tested (200 mg/kg per os) in suspension in a mixture of water and methyl cellulose or the vehicle (mixture of water and methyl cellulose) in the morning of the day of the experimentation. Just before the administration of the product and one and two hours after the administration of the product, a blood sample (one drop of blood) is taken following a small incision in the tail for determining glycaemia. This glycaemia is measured by means of a glucometer (Lifescan OneTouch Ultra, LifeScan, Johnson-Johnson Company) and OneTouch Ultra glycaemia measurement strips.

## COc1ccccc1N1CCN(CCOc2ccc(CCCCC(=O)O)cc2)CC1.Cl [Compound 1]
1 hour after administration
  Drop in glycaemia (in % of the initial value) After 1 hour: 34%
2 hours after administration
  Drop in glycaemia (in % of the initial value) After 2 hours: 44%
